Laboratory results: PubChem BioAssay (NCI)
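Interpolation was linear, between the two tested concentrations surrounding the appropriate level; five concentrations were tested over 48 hours in 96-well plates. TGI denotes the concentration required for complete inhibition of growth.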

How the values were obtained:
Assay in all cases: growth of human tumour cells (NCI), 48 h
[1] = test system: 786-0 renal
[2] = test system: A498 renal
[3] = test system: A549 NSCLC
[4] = test system: ACHN renal
[5] = test system: CAKI-1 renal
[6] = test system: CCRF-CEM leukemia
[7] = test system: COLO 205 colon
[8] = test system: DU-145 prostate
[9] = test system: EKVX NSCLC
[10] = test system: HCC-2998 colon
[11] = test system: HCT-116 colon
[12] = test system: HCT-15 colon
[13] = test system: HL-60(TB) leukemia
[14] = test system: HOP-62 NSCLC
[15] = test system: HOP-92 NSCLC
[16] = test system: HS 578T breast
[17] = test system: HT29 colon
[18] = test system: IGROV1 ovarian
[19] = test system: K-562 leukemia
[20] = test system: KM12 colon
[21] = test system: LOX IMVI melanoma
[22] = test system: M14 melanoma
[23] = test system: MALME-3M melanoma
[24] = test system: MCF7 breast
[25] = test system: MDA-MB-231 breast
[26] = test system: MDA-MB-435
[27] = test system: MDA-N
[28] = test system: MOLT-4 leukemia
[29] = test system: NCI-H226 lung
[30] = test system: NCI-H23 lung
[31] = test system: NCI-H460 lung
[32] = test system: NCI-H522 lung
[33] = test system: NCI/ADR-RES ovarian
[34] = test system: OVCAR-3 ovarian
[35] = test system: OVCAR-4 ovarian
[36] = test system: OVCAR-5 ovarian
[37] = test system: OVCAR-8 ovarian
[38] = test system: PC-3 prostate
[39] = test system: RPMI-8226 leukemia
[40] = test system: RXF 393 renal
[41] = test system: SF-268 CNS
[42] = test system: SF-295 CNS
[43] = test system: SF-539 CNS
[44] = test system: SK-MEL-2 melanoma
[45] = test system: SK-MEL-28 melanoma
[46] = test system: SK-MEL-5 melanoma
[47] = test system: SK-OV-3 ovarian
[48] = test system: SN12C renal
[49] = test system: SNB-19 CNS
[50] = test system: SNB-75 CNS
[51] = test system: SR leukemia
[52] = test system: SW-620 colon
[53] = test system: T-47D breast
[54] = test system: TK-10 renal
[55] = test system: U251 CNS
[56] = test system: UACC-257 melanoma
[57] = test system: UACC-62 melanoma
[58] = test system: UO-31 renal

## CCN(CC)CCNc1ccc([N+](=O)[O-])c2nc3ccc(OC)cc3c(NCCN(CC)CC)c12
[1]
  TGI: 1.56 µM
[2]
  TGI: 4.05 µM
[3]
  TGI: 3.4 µM
[4]
  TGI: > 10 µM
[5]
  TGI: 8.6 µM
[6]
  TGI: 1.54 µM
[7]
  TGI: 1.59 µM
[8]
  TGI: > 7.37 µM
[9]
  TGI: 5.02 µM
[10]
  TGI: 2.01 µM
[11]
  TGI: 2.13 µM
[12]
  TGI: 2.52 µM
[13]
  TGI: 2.53 µM
[14]
  TGI: 3.75 µM
[15]
  TGI: 5.42 µM
[16]
  TGI: 3.91 µM
[17]
  TGI: 2.63 µM
[18]
  TGI: 7.15 µM
[19]
  TGI: 1.38 µM
[20]
  TGI: 3.6 µM
[21]
  TGI: 2.43 µM
[22]
  TGI: > 5.3 µM
[23]
  TGI: 5.07 µM
[24]
  TGI: 2.71 µM
[25]
  TGI: 2.45 µM
[26]
  TGI: > 4.78 µM
[27]
  TGI: 2.39 µM
[28]
  TGI: > 3.13 µM
[29]
  TGI: 3.8 µM
[30]
  TGI: 4.38 µM
[31]
  TGI: 1.41 µM
[32]
  TGI: 2.51 µM
[33]
  TGI: 2.76 µM
[34]
  TGI: 4.95 µM
[35]
  TGI: 3.1 µM
[36]
  TGI: 4.79 µM
[37]
  TGI: > 4.16 µM
[38]
  TGI: 2.1 µM
[39]
  TGI: > 4.4 µM
[40]
  TGI: 2.59 µM
[41]
  TGI: > 10 µM
[42]
  TGI: 2.6 µM
[43]
  TGI: 2.43 µM
[44]
  TGI: 4.87 µM
[45]
  TGI: > 8.37 µM
[46]
  TGI: 2.98 µM
[47]
  TGI: > 10 µM
[48]
  TGI: 3.69 µM
[49]
  TGI: 2.78 µM
[50]
  TGI: > 5.11 µM
[51]
  TGI: 0.609 µM
[52]
  TGI: 2.51 µM
[53]
  TGI: > 10 µM
[54]
  TGI: > 8.78 µM
[55]
  TGI: 2.59 µM
[56]
  TGI: > 10 µM
[57]
  TGI: > 10 µM
[58]
  TGI: 3.71 µM

## Cc1c(C)c(S(=O)(=O)N(CCCCN)OCCCN)c(C)c2c1OC(C)(C)CC2
[1]
  TGI: 31.9 µM
[2]
  TGI: 41.6 µM
[3]
  TGI: 56.3 µM
[4]
  TGI: 47.2 µM
[5]
  TGI: > 100 µM
[6]
  TGI: 98.3 µM
[7]
  TGI: > 100 µM
[8]
  TGI: 57.7 µM
[9]
  TGI: 31.9 µM
[10]
  TGI: 20.8 µM
[11]
  TGI: 35.8 µM
[12]
  TGI: 46.9 µM
[13]
  TGI: > 100 µM
[14]
  TGI: 32.6 µM
[15]
  TGI: 80.6 µM
[16]
  TGI: 36.1 µM
[17]
  TGI: 40.4 µM
[18]
  TGI: 20.2 µM
[19]
  TGI: > 100 µM
[20]
  TGI: 42.8 µM
[21]
  TGI: 40.4 µM
[22]
  TGI: 98.3 µM
[24]
  TGI: > 100 µM
[25]
  TGI: 99.4 µM
[26]
  TGI: 45.1 µM
[27]
  TGI: > 100 µM
[28]
  TGI: 75.6 µM
[29]
  TGI: 30.1 µM
[30]
  TGI: 38.1 µM
[31]
  TGI: 41.2 µM
[32]
  TGI: 34.1 µM
[33]
  TGI: > 100 µM
[34]
  TGI: 30.6 µM
[35]
  TGI: 30 µM
[36]
  TGI: 34.7 µM
[37]
  TGI: 42 µM
[38]
  TGI: 23.3 µM
[39]
  TGI: 66.5 µM
[41]
  TGI: 49.6 µM
[42]
  TGI: 40.6 µM
[43]
  TGI: 64.2 µM
[44]
  TGI: 24.9 µM
[45]
  TGI: 50.7 µM
[46]
  TGI: > 100 µM
[47]
  TGI: 33.8 µM
[48]
  TGI: > 100 µM
[49]
  TGI: 37.3 µM
[50]
  TGI: 32.7 µM
[51]
  TGI: > 100 µM
[52]
  TGI: > 100 µM
[53]
  TGI: > 100 µM
[54]
  TGI: 37.8 µM
[55]
  TGI: > 100 µM
[56]
  TGI: 61.4 µM
[57]
  TGI: 72.2 µM
[58]
  TGI: 43 µM

## Cc1cc(C)c(-c2no/c(=N\S(=O)(=O)c3ccc(Cl)cc3)o2)c(C)c1
[1]
  TGI: > 100 µM
[2]
  TGI: > 100 µM
[3]
  TGI: > 100 µM
[4]
  TGI: > 100 µM
[5]
  TGI: > 100 µM
[6]
  TGI: > 100 µM
[7]
  TGI: > 100 µM
[8]
  TGI: > 100 µM
[9]
  TGI: > 100 µM
[10]
  TGI: > 100 µM
[11]
  TGI: > 100 µM
[12]
  TGI: > 100 µM
[13]
  TGI: 77.4 µM
[14]
  TGI: > 100 µM
[16]
  TGI: > 100 µM
[17]
  TGI: > 100 µM
[18]
  TGI: > 100 µM
[19]
  TGI: > 100 µM
[20]
  TGI: > 100 µM
[22]
  TGI: > 100 µM
[23]
  TGI: > 100 µM
[24]
  TGI: 56.1 µM
[25]
  TGI: > 100 µM
[26]
  TGI: > 100 µM
[27]
  TGI: > 100 µM
[28]
  TGI: > 100 µM
[29]
  TGI: > 100 µM
[30]
  TGI: > 100 µM
[31]
  TGI: > 100 µM
[32]
  TGI: 71.2 µM
[33]
  TGI: > 100 µM
[34]
  TGI: > 100 µM
[35]
  TGI: > 100 µM
[36]
  TGI: > 100 µM
[37]
  TGI: > 100 µM
[38]
  TGI: > 100 µM
[39]
  TGI: > 100 µM
[40]
  TGI: > 100 µM
[41]
  TGI: > 100 µM
[42]
  TGI: > 100 µM
[43]
  TGI: > 100 µM
[44]
  TGI: > 100 µM
[45]
  TGI: > 100 µM
[46]
  TGI: 68 µM
[47]
  TGI: > 100 µM
[48]
  TGI: > 100 µM
[49]
  TGI: > 100 µM
[50]
  TGI: > 100 µM
[51]
  TGI: 55 µM
[52]
  TGI: > 100 µM
[53]
  TGI: > 100 µM
[54]
  TGI: > 100 µM
[55]
  TGI: > 100 µM
[56]
  TGI: > 100 µM
[57]
  TGI: > 100 µM
[58]
  TGI: > 100 µM
